This is an account of results in patent US12582641B2, “Sulfur-containing compound based on glutarimide skeleton and application thereof” (SHANGHAITECH UNIVERSITY, priority 2019, dated 2026).

The experiment concerns MM.1S cells. Nature of the experiment: Proliferation inhibition (IC50) in MM.1S cells, cell viability assay. The note with it: Homo sapiens, MM1.S, 72 h, read-out: IC50 (nM), proliferation inhibitory activity of MM.1S cells (half inhibitory concentration).
Method: MM.1S (B lymphoblast) was purchased from ATCC. Complete medium was RPMI1640 supplemented with 10% FBS and 1% Penicillin-Streptomycin. The cells used were identified as correct cells by STR cells, and were negative for mycoplasma through routine inspections.
IC50 values of the compounds of the present disclosure were measured using Cell Titer Blue, Cell Titer GLO, or WST reagent from Promega Company. Assay details are as follows: Cells were seeded in 100 μL RPMI1640 complete medium containing serum at a density of 15,000 cells/well. After 24 h, the inoculated cells were treated with diluted commercial inhibitor and the compounds of the present disclosure to be tested after serial dilution. After the cells were treated with the compounds of the present disclosure to be tested for 72 h, cell viability was determined after adding the cell viability detection kit listed above according to the reagent operating instructions. The negative control was DMSO, and the positive control was a commercial inhibitor, both of which were used to treat the cells through the same method as that of the compounds of the present disclosure. The growth inhibition of the compounds of the present disclosure on cells was plotted by Prism Graphpad software, and the IC50 values of the compounds of the present disclosure were calculated therefrom.
We tested the activities of the compounds of the present invention in MM.1S cell (which overexpressed IKZF1/3 and is highly sensitive to immunomodulatory drugs) through a dose-dependent manner. The cells were treated with the compounds of the present invention at 10 different successively decreasing concentrations (starting at the highest concentration of 10 μM; 5-fold serial dilutions) for 72 h, and then the cell viability determination was performed in accordance with CCK-8 reagent operating instructions. The experiment was repeated more than three times.
With `O=C1CCC(N2Cc3c(SCCCCCCCN[C@H]4CN5CCC4CC5)cccc3C2=O)C(=O)N1` (stereo partly drawn) [SIAIS1224037, 3-(1-oxo-4-((7-(((R)-quinuclidin-3-yl)amino)heptyl)thio)isoindolin-2-yl)piperidine-2,6-dione], the IC50 turned out to be 14 nM.

For `CS(=O)(=O)N1CCN(CCCCCCCSc2cccc3c2CN(C2CCC(=O)NC2=O)C3=O)CC1` (centres unmarked) [SIAIS1224039, 3-(4-((7-(4-(methylsulfonyl)piperazin-1-yl)heptyl)thio)-1-oxoisoindolin-2-yl)piperidine-2,6-dione], the IC50 amounted to 0.54 nM.

Regarding `O=C1CCC(N2Cc3c(SCc4ccc(CN5CCSCC5)cc4)cccc3C2=O)C(=O)N1` (centres unmarked) [SIAIS1224089, 3-(1-oxo-4-((4-(thiomorpholinomethyl)benzyl)thio)isoindolin-2-yl)piperidine-2,6-dione], the IC50 came out at 0.144 nM.

Consider `CN1C(=O)CCC(N2Cc3c(SCc4ccc(CN5CCCCC5)cc4)cccc3C2=O)C1=O` (centres unmarked) [SIAIS1224101, 1-methyl-3-(1-oxo-4-((4-(piperidin-1-ylmethyl)benzyl)thio)isoindolin-2-yl)piperidine-2,6-dione], for which the IC50 came out at 287 nM.

Take `O=C1CCC(N2Cc3c(SCCc4ccc(CCN5CCCCC5)cc4)cccc3C2=O)C(=O)N1` (centres unmarked) [SIAIS1224117, 3-(1-oxo-4-((4-(2-(piperidin-1-yl)ethyl)phenethyl)thio)isoindolin-2-yl)piperidine-2,6-dione]: the IC50 is 0.19 ± 0.01 nM.

`O=C1CCC(N2Cc3c(SCCc4ccc(CCNC56CC7CC(CC(C7)C5)C6)cc4)cccc3C2=O)C(=O)N1` (centres unmarked) [SIAIS1224121, 3-(4-((4-(2-((adamantan-1-yl)amino)ethyl)phenethyl)thio)-1-oxoisoindolin-2-yl)piperidine-2,6-dione]: the IC50 came out at 0.48 ± 0.05 nM.

For `O=C1CCC(N2Cc3c(SCCCCCCCN4CCSCC4)cccc3C2=O)C(=O)N1` (centres unmarked) [SIAIS1224125, 3-(1-oxo-4-((7-thiomorpholinoheptyl)thio)isoindolin-2-yl)piperidine-2,6-dione], the IC50 was 0.046 nM.

Regarding `O=C1CCC(N2Cc3c(SCCc4ccc(CNC56CC7CC(CC(C7)C5)C6)cc4)cccc3C2=O)C(=O)N1` (centres unmarked) [SIAIS1224149, 3-(4-((4-(((adamantan-1-yl)amino)methyl)phenethyl)thio)-1-oxoisoindolin-2-yl)piperidine-2,6-dione], the IC50 was found to be 0.44 ± 0.1 nM.

For `O=C1CCC(N2C(=O)c3cccc(SCCc4ccc(CNC56CC7CC(CC(C7)C5)C6)cc4)c3C2=O)C(=O)N1` (centres unmarked) [SIAIS1224151, 4-((4-(((adamantan-1-yl)amino)methyl)phenethyl)thio)-2-(2,6-dioxopiperidin-3-yl)isoindoline-1,3-dione], the IC50 turned out to be 3.41 nM.

For the compound `O=C1CCC(N2Cc3c(SCc4ccc(CCN5CCCCC5)cc4)cccc3C2=O)C(=O)N1` (centres unmarked) [SIAIS1224153, 3-(1-oxo-4-((4-(2-(piperidin-1-yl)ethyl)benzyl)thio)isoindolin-2-yl)piperidine-2,6-dione], the IC50 turned out to be 0.024 ± 0.002 nM.

`O=C1CCC(N2Cc3c(SCc4ccc(/C=C/Br)cc4)cccc3C2=O)C(=O)N1` (centres unmarked) [SIAIS1224154, (E)-3-(4-((4-(2-bromovinyl)benzyl)thio)-1-oxoisoindolin-2-yl)piperidine-2,6-dione]: the IC50 came out at 0.809 nM.

Take `O=C1CCC(N2Cc3c(SCc4ccc(CCNC5CCCCC5)cc4)cccc3C2=O)C(=O)N1` (centres unmarked) [SIAIS1224155, 3-(4-((4-(2-(cyclohexylamino)ethyl)benzyl)thio)-1-oxoisoindolin-2-yl)piperidine-2,6-dione]: the IC50 turned out to be 0.021 ± 0.004 nM.

As for `O=C1CCC(N2Cc3c(SCCc4ccc(CN5CCCCC5)cc4)cccc3C2=O)C(=O)N1` (centres unmarked) [SIAIS1224161, 3-(1-oxo-4-((4-(piperidin-1-ylmethyl)phenethyl)thio)isoindolin-2-yl)piperidine-2,6-dione], the IC50 stood at 3.62 nM.

As for `O=C1CCC(N2C(=O)c3cccc(SCCc4ccc(CN5CCCCC5)cc4)c3C2=O)C(=O)N1` (centres unmarked) [SIAIS1224163, 2-(2,6-dioxopiperidin-3-yl)-4-((4-(piperidin-1-ylmethyl)phenethyl)thio)isoindoline-1,3-dione], the IC50 came out at 7.41 nM.

As to `O=C1CCC(N2Cc3c(SCCc4ccc(CNC5CCCCC5)cc4)cccc3C2=O)C(=O)N1` (centres unmarked) [SIAIS1227007, 3-(4-((4-((cyclohexylamino)methyl)phenethyl)thio)-1-oxoisoindolin-2-yl)piperidine-2,6-dione], the IC50 was 0.67 ± 0.27 nM.

On to `O=C1CCC(N2C(=O)c3cccc(SCCc4ccc(CNC5CCCCC5)cc4)c3C2=O)C(=O)N1` (centres unmarked) [SIAIS1227019, 4-((4-((cyclohexylamino)methyl)phenethyl)thio)-2-(2,6-dioxopiperidin-3-yl)isoindoline-1,3-dione], for which the IC50 was 34.3 nM.

For the compound `O=C1CCC(N2Cc3c(SCCCc4ccc(CN5CCCCC5)cc4)cccc3C2=O)C(=O)N1` (centres unmarked) [SIAIS1227035, 3-(1-oxo-4-((3-(4-(piperidin-1-ylmethyl)phenyl)propyl)thio)isoindolin-2-yl)piperidine-2,6-dione], the IC50 was 0.14 ± 0.04 nM.

In the case of `O=C1CCC(N2Cc3c(SCCCc4ccc(CNC56CC7CC(CC(C7)C5)C6)cc4)cccc3C2=O)C(=O)N1` (centres unmarked) [SIAIS1227037, 3-(4-((3-(4-(((adamantan-1-yl)amino)methyl)phenyl)propyl)thio)-1-oxoisoindolin-2-yl)piperidine-2,6-dione], the IC50 was 0.04 ± 0.02 nM.

For `O=C1CCC(N2C(=O)c3cccc(SCCCc4ccc(CN5CCCCC5)cc4)c3C2=O)C(=O)N1` (centres unmarked) [SIAIS1227039, 2-(2,6-dioxopiperidin-3-yl)-4-((3-(4-(piperidin-1-ylmethyl)phenyl)propyl)thio)isoindoline-1,3-dione], the IC50 was determined as 2.49 nM.

On to `O=C1CCC(N2C(=O)c3cccc(SCCCc4ccc(CNC56CC7CC(CC(C7)C5)C6)cc4)c3C2=O)C(=O)N1` (centres unmarked) [SIAIS1227041, 4-((3-(4-(((adamantan-1-yl)amino)methyl)phenyl)propyl)thio)-2-(2,6-dioxopiperidin-3-yl)isoindoline-1,3-dione], for which the IC50 amounted to 0.095 nM.

For the compound `O=C1CCC(N2Cc3c(SCc4ccc(CCCN5CCCCC5)cc4)cccc3C2=O)C(=O)N1` (centres unmarked) [SIAIS1227043, 3-(1-oxo-4-((4-(3-(piperidin-1-yl)propyl)benzyl)thio)isoindolin-2-yl)piperidine-2,6-dione], the IC50 amounted to 0.024 ± 0.006 nM.

Regarding `O=C1CCC(N2Cc3c(SCc4ccc(CCCNC5CCCCC5)cc4)cccc3C2=O)C(=O)N1` (centres unmarked) [SIAIS1227045, 3-(4-((4-(3-(cyclohexylamino)propyl)benzyl)thio)-1-oxoisoindolin-2-yl)piperidine-2,6-dione], the IC50 was found to be 0.06 ± 0.01 nM.

As for `O=C1CCC(N2Cc3c(SCc4ccc(CCCNC56CC7CC(CC(C7)C5)C6)cc4)cccc3C2=O)C(=O)N1` (centres unmarked) [SIAIS1227047, 3-(4-((4-(3-((adamantan-1-yl)amino)propyl)benzyl)thio)-1-oxoisoindolin-2-yl)piperidine-2,6-dione], the IC50 was determined as 0.028 ± 0.003 nM.

On to `O=C1CCC(N2Cc3c(SCc4ccc(CCN5CCOCC5)cc4)cccc3C2=O)C(=O)N1` (centres unmarked) [SIAIS1227049, 3-(4-((4-(2-morpholinoethyl)benzyl)thio)-1-oxoisoindolin-2-yl)piperidine-2,6-dione], for which the IC50 was 0.1 ± 0.05 nM.

Regarding `O=C1CCC(N2Cc3c(SCc4ccc(CCN5CCSCC5)cc4)cccc3C2=O)C(=O)N1` (centres unmarked) [SIAIS1227051, 3-(1-oxo-4-((4-(2-thiomorpholinoethyl)benzyl)thio)isoindolin-2-yl)piperidine-2,6-dione], the IC50 stood at 0.004 ± 0.002 nM.

Consider `O=C1CCC(N2Cc3c(SCc4ccc(CCCN5CCOCC5)cc4)cccc3C2=O)C(=O)N1` (centres unmarked) [SIAIS1227053, 3-(4-((4-(3-morpholinopropyl)benzyl)thio)-1-oxoisoindolin-2-yl)piperidine-2,6-dione], for which the IC50 turned out to be 0.079 nM.

Consider `CCN(CC)Cc1ccc(CSc2cccc3c2CN(C2CCC(=O)NC2=O)C3=O)cc1` (centres unmarked) [SIAIS1227055, 3-(4-((4-((diethylamino)methyl)benzyl)thio)-1-oxoisoindolin-2-yl)piperidine-2,6-dione], for which the IC50 is 0.285 nM.

For `CC(C)N(Cc1ccc(CSc2cccc3c2CN(C2CCC(=O)NC2=O)C3=O)cc1)C(C)C` (centres unmarked) [SIAIS1227057, 3-(4-((4-((diisopropylamino)methyl)benzyl)thio)-1-oxoisoindolin-2-yl)piperidine-2,6-dione], the IC50 turned out to be 0.252 nM.

Take `O=C1CCC(N2Cc3c(SCc4ccc(CN(C5CCCCC5)C5CCCCC5)cc4)cccc3C2=O)C(=O)N1` (centres unmarked) [SIAIS1227059, 3-(4-((4-((dicyclohexylamino)methyl)benzyl)thio)-1-oxoisoindolin-2-yl)piperidine-2,6-dione]: the IC50 was determined as 0.022 nM.

For `O=C1CCC(N2Cc3c(SCc4ccc(CNC56CC7CC(CC(O)(C7)C5)C6)cc4)cccc3C2=O)C(=O)N1` (centres unmarked) [SIAIS1227061, 3-(4-((4-(((3-hydroxyadamantan-1-yl)amino)methyl)benzyl)thio)-1-oxoisoindolin-2-yl)piperidine-2,6-dione], the IC50 was 0.721 nM.

Consider `O=C1CCC(N2Cc3c(SCCCc4ccc(CNC5CCCCC5)cc4)cccc3C2=O)C(=O)N1` (centres unmarked) [SIAIS1227067, 3-(4-((3-(4-((cyclohexylamino)methyl)phenyl)propyl)thio)-1-oxoisoindolin-2-yl)piperidine-2,6-dione], for which the IC50 was found to be 0.11 ± 0.02 nM.

Regarding `O=C1CCC(N2C(=O)c3cccc(SCCCc4ccc(CNC5CCCCC5)cc4)c3C2=O)C(=O)N1` (centres unmarked) [SIAIS1227069, 4-((3-(4-((cyclohexylamino)methyl)phenyl)propyl)thio)-2-(2,6-dioxopiperidin-3-yl)isoindoline-1,3-dione], the IC50 came to 1.12 nM.

Take `O=C1CCC(N2Cc3c(SCCCc4ccc(CN5CCOCC5)cc4)cccc3C2=O)C(=O)N1` (centres unmarked) [SIAIS1227075, 3-(4-((3-(4-(morpholinomethyl)phenyl)propyl)thio)-1-oxoisoindolin-2-yl)piperidine-2,6-dione]: the IC50 was determined as 0.499 nM.

With `O=C1CCC(N2C(=O)c3cccc(SCc4ccc(CCCN5CCCCC5)cc4)c3C2=O)C(=O)N1` (centres unmarked) [SIAIS1227085, 2-(2,6-dioxopiperidin-3-yl)-4-((4-(3-(piperidin-1-yl)propyl)benzyl)thio)isoindoline-1,3-dione], the IC50 was 0.37 nM.

On to `O=C1CCC(N2C(=O)c3cccc(SCc4ccc(CCCNC5CCCCC5)cc4)c3C2=O)C(=O)N1` (centres unmarked) [SIAIS1227087, 4-((4-(3-(cyclohexylamino)propyl)benzyl)thio)-2-(2,6-dioxopiperidin-3-yl)isoindoline-1,3-dione], for which the IC50 stood at 0.283 nM.
